# What was measured:
# [1] = system: 3D7 cells synchronized at ring stage; experiment: In vitro antimalarial growth inhibition assay (GIA), flow cytometry after 48 h; format: cell-based, P. falciparum; conditions: Plasmodium falciparum, 3D7, 48 h
# Method: Since P. falciparum I usually asynchronous during in vitro culture, the generation of highly synchronized parasite cultures is requested to investigate their pharmacological properties in vitro. […] Samples of the PACs were incubated with the cells for 48 h and then parasitemia was evaluated by flow cytometry after labelling parasite nuclei with fluorescence (growth inhibition assay, GIA).
# PACs loaded with atovaquone were analysed with 3D7 cells synchronized at ring stage. Samples were incubated with the cells for 48 h and then parasitemia was evaluated by flow cytometry after labelling parasite nuclei with fluorescence (growth inhibition assay, GIA). The pharmacological activity of atovaquone is expressed in terms of drug concentration needed to inhibit 50% of the cell population (IC50) (FIG. 9).
# [2] = cited from earlier work; for solubility in water: free drug, 25° C.
# [3] = free drug; cited from earlier work
# plasma proteins = conditions: in vivo; cited from earlier work
# [4] = Dynamic Light Scattering (DLS) mean size of PACs; format: physicochemical; conditions: ibuprofen formulations by direct dissolution, 2 h after preparation
# [5] = Evolution with time of optical density (Do at 405 nm) of curcumin solutions in PBS pH 7.4 at 37° C.; format: physicochemical; conditions: PBS pH 7.4, 37° C.
compound,measurement,setting,value
O=C1C(O)=C([C@H]2CC[C@H](c3ccc(Cl)cc3)CC2)C(=O)c2ccccc21 [Atovaquone],IC50,[1],0.00084 µM
same,solubility class in water (free drug),[2],practically insoluble
same,LogP,[3],5.8
same,bound to plasma proteins,plasma proteins,99.9%
CCCSc1nc(N[C@@H]2C[C@H]2c2ccc(F)c(F)c2)c2nnn([C@@H]3C[C@H](OCCO)[C@@H](O)[C@H]3O)c2n1 [Ticagrelor],LogP,[3],2.28
CC(C)Cc1ccc(C(C)C(=O)O)cc1 (stereo not shown) [Ibuprofen],Cumulant DLS diameter,[4],">1,000,000 nm"
same,Macroscopic aspect 2 h after dissolution,"ibuprofen 5 mg/mL, polymer 45 mg/mL, direct dissolution in water, room temperature",Macroscopic crystals
same,solubility in water,[2],0.21 µg/mL
Ivermectin,LogP,[3],5.83
"COc1cc(/C=C/C(=O)CC(=O)/C=C/c2ccc(O)c(OC)c2)ccc1O [Curcumin, curcumin]",optical density (Do at 405 nm),"[5]; With BSA (1%), curcumin 2 μg/mL, 1 h",0.275
same,optical density (Do at 405 nm),"[5]; With BSA (1%), curcumin 2 μg/mL, 24 h",0.214
same,optical density (Do at 405 nm),"[5]; With BSA (1%), curcumin 2 μg/mL, 96 h",0.437
same,optical density (Do at 405 nm),"[5]; With BSA (1%), curcumin 10 μg/mL, 1 h",1.102
same,optical density (Do at 405 nm),"[5]; With BSA (1%), curcumin 10 μg/mL, 24 h",1.007
same,optical density (Do at 405 nm),"[5]; With BSA (1%), curcumin 10 μg/mL, 96 h",0.701
same,optical density (Do at 405 nm),"[5]; With BSA (1%), curcumin 20 μg/mL, 1 h",1.875
same,optical density (Do at 405 nm),"[5]; With BSA (1%), curcumin 20 μg/mL, 24 h",1.508
same,optical density (Do at 405 nm),"[5]; With BSA (1%), curcumin 20 μg/mL, 96 h",0.899
same,optical density (Do at 405 nm),"[5]; Without BSA, curcumin 2 μg/mL, 1 h",0.068
same,optical density (Do at 405 nm),"[5]; Without BSA, curcumin 2 μg/mL, 24 h",0.019
same,optical density (Do at 405 nm),"[5]; Without BSA, curcumin 2 μg/mL, 96 h",0.001
same,optical density (Do at 405 nm),"[5]; Without BSA, curcumin 10 μg/mL, 1 h",0.321
same,optical density (Do at 405 nm),"[5]; Without BSA, curcumin 10 μg/mL, 24 h",0.097
same,optical density (Do at 405 nm),"[5]; Without BSA, curcumin 10 μg/mL, 96 h",0.064
same,optical density (Do at 405 nm),"[5]; Without BSA, curcumin 20 μg/mL, 1 h",0.717
same,optical density (Do at 405 nm),"[5]; Without BSA, curcumin 20 μg/mL, 24 h",0.253
same,optical density (Do at 405 nm),"[5]; Without BSA, curcumin 20 μg/mL, 96 h",0.113
same,IC50,[1],14.2 µM
same,macroscopic aspect,"curcumin 5 mg/ml, direct dissolution in aqueous phase (Example 3)",slightly yellow and less turbid suspension
same,solubility class in water (free drug),[2],practically insoluble
same,solubility in water,[2],< 1 µg/mL

# From patent publication US20240374740A1, “POLY AMPHIPHILIC COMPLEXES FOR THE DELIVERY OF A HYDROPHOBIC ACTIVE AGENT, COMPOSITIONS AND METHODS” (Université de Liège, priority 2021, published 2024)
